# Data reported in paper PMC8222254, “Self-assembly of an anion receptor with metal-dependent kinase inhibition and potent in vitro anti-cancer properties” (Nature Communications, 2021).
# Several values for one entry are separate records, joined by “and”; a condition that tells them apart may be missing. Identical values can stand only once.
# What was measured:
# Assay in all cases: Kinase inhibition screen, cell-free 33P ATP assay at 10 μM
# Type in all cases: biochemical
# [1] = system: 140 purified human kinases; settings: PHK
# Summary of the method: (§1)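 Each complex tested in duplicate at 10 μM; cell-free radiometric assay using ^33P ATP on purified enzymes. Hits mapped by HGNC symbol onto the kinome tree.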
# [2] = molecular target: 140 purified human kinases (Homo sapiens, UniProt P31749); settings: PKBa
# Summary of the method: as §1
# [3] = molecular target: 140 purified human kinases (Homo sapiens, UniProt Q15569)
# Summary of the method: as §1
# [4] = molecular target: T1, 140 purified human kinases (Homo sapiens, UniProt Q15139)
# T1 sequence (Q15139 1-912): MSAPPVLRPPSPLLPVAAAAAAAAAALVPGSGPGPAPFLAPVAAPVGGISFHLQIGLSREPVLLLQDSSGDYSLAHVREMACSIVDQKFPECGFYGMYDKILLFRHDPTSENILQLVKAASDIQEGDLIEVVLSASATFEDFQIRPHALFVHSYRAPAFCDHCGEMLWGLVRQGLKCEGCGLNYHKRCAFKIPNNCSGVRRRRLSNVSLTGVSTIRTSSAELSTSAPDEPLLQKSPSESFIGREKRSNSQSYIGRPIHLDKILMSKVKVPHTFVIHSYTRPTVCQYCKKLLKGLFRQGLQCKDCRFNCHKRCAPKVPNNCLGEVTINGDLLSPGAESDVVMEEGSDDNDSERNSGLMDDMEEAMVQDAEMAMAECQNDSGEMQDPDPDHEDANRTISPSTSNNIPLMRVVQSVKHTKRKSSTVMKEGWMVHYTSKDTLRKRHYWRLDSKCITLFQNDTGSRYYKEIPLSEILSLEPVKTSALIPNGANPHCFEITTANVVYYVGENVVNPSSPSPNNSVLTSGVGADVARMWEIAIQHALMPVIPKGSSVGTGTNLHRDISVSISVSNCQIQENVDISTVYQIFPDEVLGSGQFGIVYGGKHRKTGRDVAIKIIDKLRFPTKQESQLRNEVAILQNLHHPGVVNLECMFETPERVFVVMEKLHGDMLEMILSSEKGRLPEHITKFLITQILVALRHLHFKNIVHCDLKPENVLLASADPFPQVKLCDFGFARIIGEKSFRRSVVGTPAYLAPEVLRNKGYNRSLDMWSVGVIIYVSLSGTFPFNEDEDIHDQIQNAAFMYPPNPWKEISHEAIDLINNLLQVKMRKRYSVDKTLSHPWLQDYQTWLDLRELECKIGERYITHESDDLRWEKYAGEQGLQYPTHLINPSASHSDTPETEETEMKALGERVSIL
# Summary of the method: as §1
# [5] = molecular target: T2, 140 purified human kinases (Homo sapiens, UniProt P53778); settings: p38g MAPK
# T2 sequence (P53778 1-367): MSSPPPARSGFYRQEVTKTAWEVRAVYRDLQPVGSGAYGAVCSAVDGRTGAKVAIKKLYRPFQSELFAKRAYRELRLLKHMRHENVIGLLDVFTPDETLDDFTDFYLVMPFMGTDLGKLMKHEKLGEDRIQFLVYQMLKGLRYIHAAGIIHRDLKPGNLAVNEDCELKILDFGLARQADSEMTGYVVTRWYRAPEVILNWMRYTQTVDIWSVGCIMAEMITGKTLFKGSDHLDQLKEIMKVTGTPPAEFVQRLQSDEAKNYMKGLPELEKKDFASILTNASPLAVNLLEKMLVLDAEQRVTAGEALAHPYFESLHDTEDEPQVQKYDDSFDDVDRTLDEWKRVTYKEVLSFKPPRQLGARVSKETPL
# Summary of the method: as §1
# [6] = molecular target: 140 purified human kinases (Homo sapiens, UniProt Q9H2X6)
# Summary of the method: as §1
# [7] = molecular target: 140 purified human kinases (Homo sapiens, UniProt P49841); settings: GSK3b
# Summary of the method: as §1
# [8] = molecular target: T3, 140 purified human kinases (Homo sapiens, UniProt Q9UHD2)
# T3 sequence (Q9UHD2 1-729): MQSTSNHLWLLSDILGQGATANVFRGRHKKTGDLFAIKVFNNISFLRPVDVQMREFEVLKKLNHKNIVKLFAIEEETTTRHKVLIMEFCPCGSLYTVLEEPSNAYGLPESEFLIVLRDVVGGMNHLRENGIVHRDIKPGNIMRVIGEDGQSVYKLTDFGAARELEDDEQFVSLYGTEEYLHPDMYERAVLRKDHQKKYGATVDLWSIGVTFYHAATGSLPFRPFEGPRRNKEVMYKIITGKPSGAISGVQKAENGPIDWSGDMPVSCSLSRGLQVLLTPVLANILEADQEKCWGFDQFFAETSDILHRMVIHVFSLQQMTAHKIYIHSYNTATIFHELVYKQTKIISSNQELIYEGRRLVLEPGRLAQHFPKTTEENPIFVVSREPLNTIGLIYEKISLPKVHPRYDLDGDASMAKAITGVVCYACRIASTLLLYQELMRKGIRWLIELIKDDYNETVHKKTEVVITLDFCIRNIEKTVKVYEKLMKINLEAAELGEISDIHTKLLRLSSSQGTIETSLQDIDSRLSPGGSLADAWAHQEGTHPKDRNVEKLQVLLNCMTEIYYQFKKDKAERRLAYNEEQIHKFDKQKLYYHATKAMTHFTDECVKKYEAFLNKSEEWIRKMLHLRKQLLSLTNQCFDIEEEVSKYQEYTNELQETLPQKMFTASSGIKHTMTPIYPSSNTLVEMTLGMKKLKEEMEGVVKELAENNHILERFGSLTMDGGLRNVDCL
# Summary of the method: as §1
# 140 purified human kinases (Homo sapiens, UniProt P49841), sequence (P49841 whole entry): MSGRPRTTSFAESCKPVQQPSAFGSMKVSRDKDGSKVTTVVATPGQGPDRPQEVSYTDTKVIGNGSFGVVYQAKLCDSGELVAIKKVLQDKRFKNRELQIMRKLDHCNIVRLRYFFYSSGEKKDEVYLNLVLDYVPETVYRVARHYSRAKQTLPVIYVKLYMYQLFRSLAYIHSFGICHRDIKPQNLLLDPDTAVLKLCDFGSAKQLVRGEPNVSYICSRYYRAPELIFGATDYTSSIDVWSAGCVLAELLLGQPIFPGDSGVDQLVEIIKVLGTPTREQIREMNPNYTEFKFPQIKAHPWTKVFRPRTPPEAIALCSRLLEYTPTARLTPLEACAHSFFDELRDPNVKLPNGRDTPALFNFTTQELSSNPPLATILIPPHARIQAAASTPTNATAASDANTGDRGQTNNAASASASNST
# 140 purified human kinases (Homo sapiens, UniProt Q15569), sequence (Q15569 whole entry): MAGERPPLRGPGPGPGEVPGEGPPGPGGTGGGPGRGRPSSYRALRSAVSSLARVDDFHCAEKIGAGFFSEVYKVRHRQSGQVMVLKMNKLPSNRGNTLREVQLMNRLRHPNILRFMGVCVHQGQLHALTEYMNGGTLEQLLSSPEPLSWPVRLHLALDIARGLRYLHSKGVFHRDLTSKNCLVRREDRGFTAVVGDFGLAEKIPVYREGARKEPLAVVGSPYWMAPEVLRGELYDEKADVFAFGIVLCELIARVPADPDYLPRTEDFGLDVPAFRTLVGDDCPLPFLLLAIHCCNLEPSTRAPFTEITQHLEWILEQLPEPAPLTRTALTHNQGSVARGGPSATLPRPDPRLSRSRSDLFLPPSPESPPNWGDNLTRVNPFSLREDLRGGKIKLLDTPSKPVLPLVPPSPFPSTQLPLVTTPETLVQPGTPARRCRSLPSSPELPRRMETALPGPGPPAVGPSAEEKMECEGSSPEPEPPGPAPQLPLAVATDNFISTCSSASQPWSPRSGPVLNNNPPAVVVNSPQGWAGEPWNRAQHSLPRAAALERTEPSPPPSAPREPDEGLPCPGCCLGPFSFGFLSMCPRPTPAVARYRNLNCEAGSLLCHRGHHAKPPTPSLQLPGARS
# 140 purified human kinases (Homo sapiens, UniProt P31749), sequence (P31749 whole entry): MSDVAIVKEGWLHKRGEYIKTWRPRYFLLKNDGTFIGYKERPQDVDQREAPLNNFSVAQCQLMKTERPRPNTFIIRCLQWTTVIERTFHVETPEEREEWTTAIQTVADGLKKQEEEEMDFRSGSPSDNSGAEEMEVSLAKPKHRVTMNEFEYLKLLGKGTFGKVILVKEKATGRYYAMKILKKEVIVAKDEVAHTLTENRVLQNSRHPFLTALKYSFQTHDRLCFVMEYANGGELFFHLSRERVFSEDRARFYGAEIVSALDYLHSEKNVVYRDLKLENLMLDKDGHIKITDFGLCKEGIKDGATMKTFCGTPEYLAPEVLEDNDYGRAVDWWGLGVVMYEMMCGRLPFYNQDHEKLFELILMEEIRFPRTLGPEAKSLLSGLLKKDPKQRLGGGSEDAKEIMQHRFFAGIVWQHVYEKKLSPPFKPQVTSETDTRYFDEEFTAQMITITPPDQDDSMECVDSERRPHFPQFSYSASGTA
# 140 purified human kinases (Homo sapiens, UniProt Q9H2X6), sequence (Q9H2X6 whole entry): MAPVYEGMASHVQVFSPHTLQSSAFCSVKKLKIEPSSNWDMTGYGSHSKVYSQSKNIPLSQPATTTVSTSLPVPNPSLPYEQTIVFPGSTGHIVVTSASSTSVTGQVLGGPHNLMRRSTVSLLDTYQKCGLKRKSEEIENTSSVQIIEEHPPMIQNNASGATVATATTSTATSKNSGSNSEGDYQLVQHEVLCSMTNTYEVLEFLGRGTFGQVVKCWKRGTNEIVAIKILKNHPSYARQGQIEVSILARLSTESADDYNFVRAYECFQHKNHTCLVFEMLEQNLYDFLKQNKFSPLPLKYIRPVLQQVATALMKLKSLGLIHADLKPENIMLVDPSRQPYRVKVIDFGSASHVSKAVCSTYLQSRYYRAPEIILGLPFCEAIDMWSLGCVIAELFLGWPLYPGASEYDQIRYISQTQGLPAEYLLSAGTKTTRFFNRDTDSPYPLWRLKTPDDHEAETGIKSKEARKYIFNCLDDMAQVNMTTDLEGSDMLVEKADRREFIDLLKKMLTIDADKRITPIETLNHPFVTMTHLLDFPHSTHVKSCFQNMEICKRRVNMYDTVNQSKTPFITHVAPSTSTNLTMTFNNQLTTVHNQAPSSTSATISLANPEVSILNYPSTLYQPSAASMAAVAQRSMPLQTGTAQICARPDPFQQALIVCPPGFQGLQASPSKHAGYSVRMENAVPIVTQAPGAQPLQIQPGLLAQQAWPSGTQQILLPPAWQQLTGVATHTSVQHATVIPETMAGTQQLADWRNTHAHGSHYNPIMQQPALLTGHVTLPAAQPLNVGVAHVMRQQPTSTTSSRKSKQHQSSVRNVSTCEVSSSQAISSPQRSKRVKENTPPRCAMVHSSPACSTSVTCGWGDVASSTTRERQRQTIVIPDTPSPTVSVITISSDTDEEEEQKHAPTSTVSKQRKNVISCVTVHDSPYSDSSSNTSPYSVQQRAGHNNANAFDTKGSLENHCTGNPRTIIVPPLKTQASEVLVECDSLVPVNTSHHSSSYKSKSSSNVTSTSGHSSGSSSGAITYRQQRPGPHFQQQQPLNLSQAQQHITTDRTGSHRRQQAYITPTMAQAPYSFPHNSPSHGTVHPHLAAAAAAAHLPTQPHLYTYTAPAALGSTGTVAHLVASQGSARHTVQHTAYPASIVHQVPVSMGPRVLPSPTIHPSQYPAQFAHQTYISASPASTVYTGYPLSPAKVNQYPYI
smiles,measurement,setting,value
[Cu+2].[Cu+2].[Cu+2].c1ccc(-c2csc(NCCN(CCNc3nc(-c4ccccn4)cs3)CCNc3nc(-c4ccccn4)cs3)n2)nc1.c1ccc(-c2csc(NCCN(CCNc3nc(-c4ccccn4)cs3)CCNc3nc(-c4ccccn4)cs3)n2)nc1 [[L2Cu3]6+],% activity,[1]; Run 1,40.1%
same,% activity,[1]; Run 2,50.7%
same,% Inhibition Run 1,[2],72.1%
same,% Inhibition Run 2,[2],76%
same,"% Inhibition, Mean",[2],74%
same,mean % activity,[2],26%
same,% activity,[2]; Run 1,27.9%
same,% activity,[2]; Run 2,24%
same,% Inhibition Run 1,[3]; TESK1,16.1%
same,% Inhibition Run 2,[3]; TESK1,-16.2%
same,"% Inhibition, Mean",[3]; TESK1,-0.05%
same,mean % activity,[3]; TESK1,100%
same,% activity,"[3]; TESK1, Run 1",83.9%
same,% activity,"[3]; TESK1, Run 2",116.2%
same,% Inhibition Run 1,[4]; PKD1,73%
same,% Inhibition Run 2,[4]; PKD1,71.7%
same,"% Inhibition, Mean",[4]; PKD1,72%
same,mean % activity,[4]; PKD1,28%
same,% activity,"[4]; PKD1, Run 1",27%
same,% activity,"[4]; PKD1, Run 2",28.3%
same,"% Activation, Mean value",[5],3.55%
same,% Inhibition Run 1,[5],-1.3%
same,% Inhibition Run 2,[5],-5.8%
same,"% Inhibition, Mean",[5],-3.55%
same,mean % activity,[5],104%
same,% activity,[5]; Run 1,101.3%
same,% activity,[5]; Run 2,105.8%
same,% Inhibition Run 1,[6]; HIPK2,50.5%
same,% Inhibition Run 2,[6]; HIPK2,45.5%
same,"% Inhibition, Mean",[6]; HIPK2,48%
same,mean % activity,[6]; HIPK2,52%
same,% activity,"[6]; HIPK2, Run 1",49.5%
same,% activity,"[6]; HIPK2, Run 2",54.5%
same,% Inhibition Run 1,[7],28.4%
same,% Inhibition Run 2,[7],32.5%
same,"% Inhibition, Mean",[7],30%
same,mean % activity,[7],70%
same,% activity,[7]; Run 1,71.6%
same,% activity,[7]; Run 2,67.5%
same,% Inhibition Run 1,[8]; TBK1,60.3%
same,% Inhibition Run 2,[8]; TBK1,64%
same,"% Inhibition, Mean",[8]; TBK1,62%
same,mean % activity,[8]; TBK1,38%
same,% activity,"[8]; TBK1, Run 1",39.7%
same,% activity,"[8]; TBK1, Run 2",36%
CC(=O)[O-].CC(=O)[O-].CC(=O)[O-].CC(=O)[O-].CC(=O)[O-].CC(=O)[O-].[Zn+2].[Zn+2].[Zn+2].c1ccc(-c2csc(NCCN(CCNc3nc(-c4ccccn4)cs3)CCNc3nc(-c4ccccn4)cs3)n2)nc1.c1ccc(-c2csc(NCCN(CCNc3nc(-c4ccccn4)cs3)CCNc3nc(-c4ccccn4)cs3)n2)nc1 [[L2Zn3]6+],"% Inhibition, Run 1 / Run 2",[1],68% and 61%
same,"% Inhibition, Mean",[2],17%
same,mean % activity,[2],83%
same,% activity,[2]; duplicate runs,68% and 99%
same,"% Inhibition, Mean",[3]; TESK1,25%
same,"% Inhibition, Run 1 / Run 2",[3]; TESK1,34% and 17%
same,mean % activity,[3]; TESK1,75%
same,% activity,"[3]; TESK1, duplicate runs",66% and 83%
same,"% Inhibition, Mean",[4]; PKD1,45%
same,"% Inhibition, Run 1 / Run 2",[4]; PKD1,50% and 40%
same,mean % activity,[4]; PKD1,55%
same,% activity,"[4]; PKD1, duplicate runs",50% and 60%
same,"% Activation, Mean value",[5],5%
same,"% Inhibition, Mean",[5],-5%
same,"% Inhibition, Run 1 / Run 2",[5],-3.4% and -6.5%
same,mean % activity,[5],105%
same,% activity,[5]; duplicate runs,103% and 107%
same,"% Inhibition, Mean",[6]; HIPK2,12%
same,mean % activity,[6]; HIPK2,88%
same,% activity,"[6]; HIPK2, duplicate runs",76% and 100%
same,"% Inhibition, Mean",[7],16%
same,"% Inhibition, Run 1 / Run 2",[7],20% and 11%
same,mean % activity,[7],84%
same,% activity,[7]; duplicate runs,80% and 89%
same,"% Inhibition, Mean",[8]; TBK1,13%
same,mean % activity,[8]; TBK1,87%
same,% activity,"[8]; TBK1, duplicate runs",81% and 93%
